Test results published in PubChem BioAssay (NCI).
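These data come from cells grown in 96-well plates and exposed to compound for 48 hours at five concentrations. GI50 = concentration required for 50% inhibition of growth. The concentration for full growth arrest is given as TGI.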

Columns and labels:
Assay in all cases: growth of human tumour cells (NCI), 48 h
[1] = test system: MALME-3M melanoma
[2] = test system: SK-MEL-28 melanoma
[3] = test system: SNB-19 CNS
[4] = test system: DU-145 prostate
[5] = test system: ACHN renal
[6] = test system: HCC-2998 colon
[7] = test system: SF-539 CNS
[8] = test system: CCRF-CEM leukemia
[9] = test system: A549 NSCLC
[10] = test system: COLO 205 colon
[11] = test system: OVCAR-5 ovarian
[12] = test system: RXF 393 renal
[13] = test system: OVCAR-3 ovarian
[14] = test system: NCI-H460 lung
[15] = test system: SN12C renal
[16] = test system: SW-620 colon
[17] = test system: NCI-H522 lung
[18] = test system: SNB-75 CNS
[19] = test system: T-47D breast
[20] = test system: KM12 colon
[21] = test system: SF-268 CNS
[22] = test system: CAKI-1 renal
[23] = test system: M14 melanoma
[24] = test system: A498 renal
[25] = test system: MDA-MB-435
[26] = test system: UACC-62 melanoma
[27] = test system: TK-10 renal
[28] = test system: HS 578T breast
[29] = test system: SK-MEL-5 melanoma
[30] = test system: HCT-15 colon
[31] = test system: HOP-62 NSCLC
[32] = test system: UACC-257 melanoma
[33] = test system: NCI/ADR-RES ovarian
[34] = test system: SK-MEL-2 melanoma
[35] = test system: MDA-MB-231 breast
[36] = test system: HCT-116 colon
[37] = test system: K-562 leukemia
[38] = test system: PC-3 prostate
[39] = test system: SK-OV-3 ovarian
[40] = test system: RPMI-8226 leukemia
[41] = test system: OVCAR-4 ovarian
[42] = test system: HT29 colon
[43] = test system: MCF7 breast
[44] = test system: IGROV1 ovarian
[45] = test system: U251 CNS
[46] = test system: LOX IMVI melanoma
[47] = test system: 786-0 renal
[48] = test system: UO-31 renal
[49] = test system: NCI-H23 lung
[50] = test system: EKVX NSCLC
[51] = test system: HL-60(TB) leukemia
[52] = test system: NCI-H226 lung
[53] = test system: MOLT-4 leukemia
[54] = test system: SF-295 CNS
[55] = test system: SR leukemia
[56] = test system: BT-549 breast
[57] = test system: OVCAR-8 ovarian

SMILES: O=C(/C=C/c1ccco1)Nc1ncc(Cc2cccc(C(F)(F)F)c2)s1
- GI50 [1]: 125 nM
- TGI [1]: 10600 nM
- GI50 [2]: 1100 nM
- TGI [2]: > 50200 nM
- GI50 [3]: 100 nM
- TGI [3]: > 44500 nM
- GI50 [4]: 103 nM
- TGI [4]: > 24300 nM
- GI50 [5]: 64.7 nM
- TGI [5]: 3660 nM
- GI50 [6]: 179 nM
- TGI [6]: 2210 nM
- GI50 [7]: 76.2 nM
- TGI [7]: 313 nM
- GI50 [8]: 68.2 nM
- TGI [8]: > 47800 nM
- GI50 [9]: 113 nM
- TGI [9]: > 36400 nM
- GI50 [10]: 43.3 nM
- TGI [10]: 166 nM
- GI50 [11]: 353 nM
- TGI [11]: 11800 nM
- GI50 [12]: 57.6 nM
- TGI [12]: 853 nM
- GI50 [13]: 38.6 nM
- TGI [13]: 450 nM
- GI50 [14]: 40.1 nM
- TGI [14]: 9590 nM
- GI50 [15]: 197 nM
- TGI [15]: > 50500 nM
- GI50 [16]: 42.2 nM
- TGI [16]: > 100000 nM
- GI50 [17]: 32.1 nM
- TGI [17]: 328 nM
- GI50 [18]: 30.1 nM
- TGI [18]: 1650 nM
- GI50 [19]: 120 nM
- TGI [19]: > 92200 nM
- GI50 [20]: 43.2 nM
- TGI [20]: > 31800 nM
- GI50 [21]: 167 nM
- TGI [21]: > 44200 nM
- GI50 [22]: 46.4 nM
- TGI [22]: 7930 nM
- GI50 [23]: 57.2 nM
- TGI [23]: 3180 nM
- GI50 [24]: 26.7 nM
- TGI [24]: 1730 nM
- GI50 [25]: 20.7 nM
- TGI [25]: 53.3 nM
- GI50 [26]: 54.5 nM
- TGI [26]: 24600 nM
- GI50 [27]: 779 nM
- TGI [27]: 13800 nM
- GI50 [28]: 46.6 nM
- TGI [28]: 3890 nM
- GI50 [29]: 51.2 nM
- TGI [29]: 1810 nM
- GI50 [30]: 46.5 nM
- TGI [30]: > 34300 nM
- GI50 [31]: 96.5 nM
- TGI [31]: 6320 nM
- GI50 [32]: 3630 nM
- TGI [32]: > 100000 nM
- GI50 [33]: 42.2 nM
- TGI [33]: 1660 nM
- GI50 [34]: 96.6 nM
- TGI [34]: 5280 nM
- GI50 [35]: 153 nM
- TGI [35]: 4800 nM
- GI50 [36]: 43.8 nM
- TGI [36]: > 32800 nM
- GI50 [37]: 36.1 nM
- TGI [37]: > 33800 nM
- GI50 [38]: 55 nM
- TGI [38]: > 44300 nM
- GI50 [39]: 62.6 nM
- TGI [39]: 7450 nM
- GI50 [40]: 291 nM
- TGI [40]: 10900 nM
- GI50 [41]: 495 nM
- TGI [41]: 4030 nM
- GI50 [42]: 38.8 nM
- TGI [42]: > 33000 nM
- GI50 [43]: 36.7 nM
- TGI [43]: > 56200 nM
- GI50 [44]: 124 nM
- TGI [44]: > 32200 nM
- GI50 [45]: 53.2 nM
- TGI [45]: 2110 nM
- GI50 [46]: 57.2 nM
- TGI [46]: 2920 nM
- GI50 [47]: 163 nM
- TGI [47]: 17800 nM
- GI50 [48]: 166 nM
- TGI [48]: 5130 nM
- GI50 [49]: 208 nM
- TGI [49]: > 39700 nM
- GI50 [50]: 117 nM
- TGI [50]: > 55800 nM
- GI50 [51]: 60.4 nM
- TGI [51]: 190 nM
- GI50 [52]: 336 nM
- GI50 [53]: 84 nM
- TGI [53]: 26000 nM
- GI50 [54]: 67.8 nM
- TGI [54]: 1420 nM
- GI50 [55]: 33.4 nM
- TGI [55]: 3670 nM
- GI50 [56]: 248 nM
- TGI [56]: > 21200 nM
- GI50 [57]: 138 nM
- TGI [57]: > 37700 nM
